Assay results published in ChEMBL document CHEMBL4382207, “Computer-aided drug discovery of Myc-Max inhibitors as potential therapeutics for prostate cancer” (Eur J Med Chem, 2018).
The source made the active and inactive calls. No cut-off for these calls is given here.

Assays:
c-Myc/Max [1] = molecular target: T1, c-Myc/Max (Homo sapiens, UniProt P01106+P61244); test: Inhibition of Myc-Max (unknown origin) expressed in human LNCAP cells assessed as reduction in transcriptional activity at 25 uM after 1 day by luciferase reporter gene assay relative to control; format: cell-based
LNCaP [2] = test: Cytotoxicity against human LNCAP cells assessed as reduction in cell viability after 96 hrs by prestoblue assay; format: functional, cell-based
c-Myc/Max [3] = molecular target: T1, c-Myc/Max; test: Inhibition of full length Myc-Max (unknown origin) expressed in human PC3 cells at 12.5 to 25 uM after 24 hrs by luciferase reporter gene based mammalian two-hybrid assay; format: cell-based
c-Myc/Max [4] = molecular target: T1, c-Myc/Max; test: Inhibition of Myc-Max (unknown origin) expressed in human 22rv1 cells harboring UBE2C promoter assessed as reduction in ARV7 level after 1 day by luciferase reporter gene assay; format: cell-based
c-Myc/Max [5] = molecular target: T1, c-Myc/Max; test: Inhibition of Myc-Max (unknown origin) expressed in human 22rv1 cells harboring UBE2C promoter assessed as reduction in ARV7 level at 12.5 to 25 uM after 48 hrs by Western blot analysis; format: cell-based
c-Myc/Max [6] = molecular target: T1, c-Myc/Max; test: Inhibition of biotin-labeled EBOX oligonucleotide binding to GST-tagged Myc (368 to 454 residues)/His-tagged Max (23 to 102 residues) (unknown origin) expressed in Escherichia coli BL21(DE3) at 500 uM incubated up to 600 secs by biolayer interferometry assay
c-Myc/Max [7] = molecular target: T1, c-Myc/Max; test: Inhibition of Myc-Max (unknown origin) expressed in human 22rv1 cells harboring UBE2C promoter assessed as reduction in ARV7 level at 25 uM after 1 day by luciferase reporter gene assay relative to control; format: cell-based
c-Myc/Max [8] = molecular target: T1, c-Myc/Max; test: Inhibition of Myc-Max (unknown origin) expressed in human LNCAP cells assessed as reduction in transcriptional activity after 1 day by luciferase reporter gene assay; format: cell-based
LNCaP [9] = test: Induction of apoptosis in human LNCAP cells assessed as increase in PARP cleavage at 6.25 to 25 uM after 48 hrs by Western blot analysis; format: functional, cell-based
LNCaP [10] = test: Cytotoxicity against human LNCAP cells assessed as reduction in cell viability at 3 uM after 96 hrs by prestoblue assay relative to control; format: functional
[11] = Cytotoxicity against rat HO15.19 cells assessed as reduction in cell viability at 25 uM after 96 hrs by prestoblue assay relative to control; format: cell-based; conditions: read-out: INH
HO15.19 = test: Cytotoxicity against rat HO15.19 cells assessed as reduction in cell viability at 3 uM after 96 hrs by prestoblue assay; format: cell-based; conditions: ho15.19, 96 h
c-Myc/Max [12] = molecular target: T1, c-Myc/Max; test: Inhibition of biotin-labeled EBOX oligonucleotide binding to GST-tagged Myc (368 to 454 residues)/His-tagged Max (23 to 102 residues) (unknown origin) expressed in Escherichia coli BL21(DE3) incubated up to 600 secs by biolayer interferometry assay

T1 sequence (P01106 whole entry): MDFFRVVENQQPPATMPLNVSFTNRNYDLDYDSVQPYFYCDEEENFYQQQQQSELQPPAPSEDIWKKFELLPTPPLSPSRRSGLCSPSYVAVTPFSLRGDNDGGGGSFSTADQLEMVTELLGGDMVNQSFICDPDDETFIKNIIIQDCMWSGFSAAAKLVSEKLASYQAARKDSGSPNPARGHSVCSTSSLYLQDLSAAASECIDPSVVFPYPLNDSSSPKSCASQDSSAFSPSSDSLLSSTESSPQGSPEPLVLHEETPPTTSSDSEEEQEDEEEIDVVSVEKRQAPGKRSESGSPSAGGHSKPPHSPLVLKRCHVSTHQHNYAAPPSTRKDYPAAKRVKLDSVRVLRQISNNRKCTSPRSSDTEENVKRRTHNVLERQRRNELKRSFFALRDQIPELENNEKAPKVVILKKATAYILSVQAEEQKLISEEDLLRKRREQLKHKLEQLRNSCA
T1 sequence (P61244 whole entry): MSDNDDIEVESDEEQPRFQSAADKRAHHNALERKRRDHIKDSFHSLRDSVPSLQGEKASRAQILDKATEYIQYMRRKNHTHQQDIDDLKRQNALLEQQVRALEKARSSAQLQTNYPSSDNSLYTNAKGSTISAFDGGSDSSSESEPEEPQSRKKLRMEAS

Q: What does the source list for `O=[N+]([O-])c1ccc(Nc2ccccc2-c2ccccc2)c2nonc12`?
A: inhibition (c-Myc/Max [1]): 88%; IC50 (LNCaP [2]): 8.7 µM; inhibition (c-Myc/Max [3]): inactive; inhibition (c-Myc/Max [4]): Dose-dependent effect; inhibition (c-Myc/Max [5]): Active; inhibition (c-Myc/Max [6]): Active

Q: What does the source list for `CCc1ccc(/C=C2\SC(=S)NC2=O)cc1`?
A: inhibition (c-Myc/Max [1]): 91%; IC50 (LNCaP [2]): 18.3 µM; inhibition (c-Myc/Max [7]): 70%; inhibition (c-Myc/Max [4]): Dose-dependent effect

Q: Which results are given for `CC(C)(C)[C@H]1CCc2sc(C(=O)N3CCC(C(N)=O)CC3)cc2C1`?
A: inhibition (c-Myc/Max [1]): 73%; inhibition (c-Myc/Max [7]): 58%; inhibition (c-Myc/Max [4]): Dose-dependent effect

Q: For `CS(=O)(=O)Nc1ccccc1C(=O)OCc1cc(=O)oc2cc(O)ccc12`, which inhibition (c-Myc/Max [1]) is on record?
A: Its inhibition is 53%.

Q: And the inhibition (c-Myc/Max [4])?
A: Its inhibition is “Dose-dependent effect”.

Q: For `CN1C(=O)/C(=C\C=C\c2ccco2)SC1=S`, which inhibition (c-Myc/Max [1]) is on record?
A: Its inhibition is 78%.

Q: What about the inhibition (c-Myc/Max [7]) of the same molecule?
A: The inhibition was 64%.

Q: What about the inhibition (c-Myc/Max [4]) of the same molecule?
A: Its inhibition is “Dose-dependent effect”.

Q: Which results are given for `O=C1/C(=C/c2cccs2)SC(=S)N1c1cccc(O)c1`?
A: inhibition (c-Myc/Max [1]): 65%; inhibition (c-Myc/Max [4]): Dose-dependent effect

Q: Which inhibition (c-Myc/Max [1]) does the source give for `O=C1NC(=S)S/C1=C\c1ccccc1C(F)(F)F` here?
A: Its inhibition is 98%.

Q: What about the IC50 (c-Myc/Max [8]) of the same molecule?
A: The IC50 was 22.7 µM.

Q: And the IC50 (LNCaP [2])?
A: The IC50 was 11.1 µM.

Q: And the Activity (LNCaP [9])?
A: Its Activity is “Active”.

Q: And the inhibition (c-Myc/Max [7])?
A: The inhibition was 71%.

Q: And the inhibition (c-Myc/Max [4])?
A: The inhibition was “Dose-dependent effect”.

Q: And the inhibition (c-Myc/Max [5])?
A: The inhibition was “Active”.

Q: What about the inhibition (c-Myc/Max [6]) of the same molecule?
A: Its inhibition is “Active”.

Q: Which inhibition (c-Myc/Max [1]) does the source give for `CC(=O)Nc1ccc(Nc2cc(Cl)c(C(F)(F)F)cc2[N+](=O)[O-])cc1` here?
A: Its inhibition is 81%.

Q: And the inhibition (c-Myc/Max [7])?
A: Its inhibition is 51%.

Q: And the inhibition (c-Myc/Max [4])?
A: Its inhibition is “Dose-dependent effect”.

Q: Which inhibition (c-Myc/Max [1]) does the source give for `O=C(CN1C(=O)NC2(CCCC2)C1=O)Nc1cccc(C(F)(F)F)c1` here?
A: The inhibition was 65%.

Q: What about the inhibition (c-Myc/Max [4]) of the same molecule?
A: Its inhibition is “Dose-dependent effect”.

Q: What does the source list for `S=C(NCc1ccc(Cl)c(Cl)c1)Nc1cccnc1`?
A: inhibition (c-Myc/Max [1]): 73%; inhibition (c-Myc/Max [7]): 50%; inhibition (c-Myc/Max [4]): Dose-dependent effect

Q: With `FC(F)(F)c1cc(NC(=S)NCc2ccccc2)cc(C(F)(F)F)c1` as the molecule, how does the inhibition (c-Myc/Max [1]) read?
A: Its inhibition is 106%.

Q: And the IC50 (c-Myc/Max [8])?
A: Its IC50 is 8.9 µM.

Q: What about the IC50 (LNCaP [2]) of the same molecule?
A: The IC50 was 2.5 µM.

Q: And the inhibition at 3 µM (LNCaP [10])?
A: The inhibition at 3 µM was 70%.

Q: And the cytotoxicity at 96 h, 25 µM [11]?
A: Its cytotoxicity at 96 h, 25 µM is at most 40%.

Q: And the Activity (HO15.19)?
A: Its Activity is “Non-Toxic”.

Q: And the Activity (LNCaP [9])?
A: The Activity was “Active”.

Q: And the inhibition (c-Myc/Max [12])?
A: The inhibition was “Dose-dependent effect”.

Q: And the inhibition (c-Myc/Max [3])?
A: The inhibition was “Active”.

Q: And the inhibition (c-Myc/Max [7])?
A: Its inhibition is 94%.

Q: What about the inhibition (c-Myc/Max [4]) of the same molecule?
A: The inhibition was “Dose-dependent effect”.

Q: And the inhibition (c-Myc/Max [5])?
A: The inhibition was “Active”.

Q: And the inhibition (c-Myc/Max [6])?
A: Its inhibition is “Active”.

Q: Which inhibition (c-Myc/Max [1]) does the source give for `NC(=O)c1ccsc1NC(=O)Nc1cccc(C(F)(F)F)c1` here?
A: Its inhibition is 95%.

Q: And the inhibition (c-Myc/Max [7])?
A: Its inhibition is 73%.

Q: What about the inhibition (c-Myc/Max [4]) of the same molecule?
A: The inhibition was “Dose-dependent effect”.
